Source: patent publication US20150010928A1, “MEANS AND METHODS FOR ASSESSING AN ENDOCRINE DISEASE OR DISORDER” (priority 2012, published 2015)
Marks after values point to notes of the source that are not given here.

System: female rats
Assay: Plasma metabolite profiling (GC-MS, LC-MS, SPE-LC-MS) in female rats dosed once daily over 28 days (OECD 407)
Assay type: in vivo, rat
Details: high dose
Summary of the method: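 Metabolites were measured by GC-MS (derivatised) and reversed-phase LC-MS, with steroids by online SPE-LC-MS, in plasma drawn from fasted rats on days 7, 14 and 28 of once-daily dosing (5/sex/group). Values are ratios versus sex-matched untreated controls, normalized to pool samples, with Welch-test p-values.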

C[C@]12C=CC3=C4CCC(=O)C=C4CCC3C1CC[C@@H]2O (stereo partly drawn) [Trenbolone]
3-Hydroxybutyrate (f7, female rats, Table 15a): 2.05 *
DAG (C18:1,C18:2) (f7, female rats, Table 15a): 1.42 *
Glutamate (f7, female rats, Table 15a): 1.18
Glycine (f7, female rats, Table 15a): 1.18 *
Phosphatidylcholine (C16:0,C20:5) (f7, female rats, Table 15a): 1.09
TAG (C16:0,C16:1) (f7, female rats, Table 15a): 1.49 *
TAG (C16:0,C18:1,C18:3) (f7, female rats, Table 15a): 1.48 *
TAG (C16:0,C18:2) (f7, female rats, Table 15a): 1.83 *
TAG (C18:1,C18:2) (f7, female rats, Table 15a): 1.72 *
TAG (C18:2,C18:2) (f7, female rats, Table 15a): 1.61 *
TAG (C18:3, C18:2, C18:1) (f7, female rats, Table 15a): 1.92 *
TAG (DAG-Fragment) (f7, female rats, Table 15a): 1.8 *
TAG No 059 (f7, female rats, Table 15a): 1.62 *
Threonic acid (f7, female rats, Table 15a): 1.28 *
trans-4-Hydroxyproline (f7, female rats, Table 15a): 1.31 *
Androstenedione (f7, female rats, Table 15b): 0.3 *
Arginine (f7, female rats, Table 15b): 0.76 *
Campesterol (f7, female rats, Table 15b): 0.53 *
Ceramide (d18:1,C24:0) (f7, female rats, Table 15b): 0.5 *
Lactate (f7, female rats, Table 15b): 0.65 *
Lysine (f7, female rats, Table 15b): 0.68 *
Metanephrine (f7, female rats, Table 15b): 1
Normetanephrine (f7, female rats, Table 15b): 0.83 *
Phosphatidylcholine (C16:0,C20:5) (f7, female rats, Table 15b): 1.09
Phosphatidylcholine (C16:0,C22:6) (f7, female rats, Table 15b): 0.89
Phosphatidylcholine (C18:0, C20:3) (f7, female rats, Table 15b): 0.77 *
Phosphatidylcholine (C18:0,C18:1) (f7, female rats, Table 15b): 0.84
Progesterone (f7, female rats, Table 15b): 0.34 *
Pyruvate (f7, female rats, Table 15b): 0.57 *
Sphingomyelin (d18:1,C23:0) (f7, female rats, Table 15b): 0.51 *
Sphingomyelin (d18:1,C24:0) (f7, female rats, Table 15b): 0.62 *
Urea (f7, female rats, Table 15b): 0.74 *
3-Hydroxybutyrate (f14, female rats, Table 15a): 1.73 *
DAG (C18:1,C18:2) (f14, female rats, Table 15a): 1.56
Glutamate (f14, female rats, Table 15a): 1.13 *
Glycine (f14, female rats, Table 15a): 1.2 *
Phosphatidylcholine (C16:0,C20:5) (f14, female rats, Table 15a): 1.18 *
TAG (C16:0,C16:1) (f14, female rats, Table 15a): 1.41
TAG (C16:0,C18:1,C18:3) (f14, female rats, Table 15a): 2.26 *
TAG (C16:0,C18:2) (f14, female rats, Table 15a): 1.9
TAG (C18:1,C18:2) (f14, female rats, Table 15a): 1.97 *
TAG (C18:2,C18:2) (f14, female rats, Table 15a): 2.21 *
TAG (C18:3, C18:2, C18:1) (f14, female rats, Table 15a): 2.39 *
TAG (DAG-Fragment) (f14, female rats, Table 15a): 2.67 *
TAG No 059 (f14, female rats, Table 15a): 2.14 *
Threonic acid (f14, female rats, Table 15a): 1.76 *
trans-4-Hydroxyproline (f14, female rats, Table 15a): 1.37 *
Androstenedione (f14, female rats, Table 15b): 0.15 *
Arginine (f14, female rats, Table 15b): 0.69 *
Campesterol (f14, female rats, Table 15b): 0.4 *
Ceramide (d18:1,C24:0) (f14, female rats, Table 15b): 0.41 *
Lactate (f14, female rats, Table 15b): 0.56 *
Lysine (f14, female rats, Table 15b): 0.62 *
Metanephrine (f14, female rats, Table 15b): 1.03
Normetanephrine (f14, female rats, Table 15b): 0.83 *
Phosphatidylcholine (C16:0,C20:5) (f14, female rats, Table 15b): 1.18
Phosphatidylcholine (C16:0,C22:6) (f14, female rats, Table 15b): 0.87 *
Phosphatidylcholine (C18:0, C20:3) (f14, female rats, Table 15b): 0.75 *
Phosphatidylcholine (C18:0,C18:1) (f14, female rats, Table 15b): 0.66 *
Progesterone (f14, female rats, Table 15b): 0.17 *
Pyruvate (f14, female rats, Table 15b): 0.61 *
Sphingomyelin (d18:1,C23:0) (f14, female rats, Table 15b): 0.46 *
Sphingomyelin (d18:1,C24:0) (f14, female rats, Table 15b): 0.64 *
Urea (f14, female rats, Table 15b): 0.72 *
3-Hydroxybutyrate (f28, female rats, Table 15a): 1.32 *
DAG (C18:1,C18:2) (f28, female rats, Table 15a): 1.79 *
Glutamate (f28, female rats, Table 15a): 1.23 *
Glycine (f28, female rats, Table 15a): 1.37 *
Phosphatidylcholine (C16:0,C20:5) (f28, female rats, Table 15a): 1.17 *
TAG (C16:0,C16:1) (f28, female rats, Table 15a): 1.28 *
TAG (C16:0,C18:1,C18:3) (f28, female rats, Table 15a): 2.48 *
TAG (C16:0,C18:2) (f28, female rats, Table 15a): 2.08 *
TAG (C18:1,C18:2) (f28, female rats, Table 15a): 2.25 *
TAG (C18:2,C18:2) (f28, female rats, Table 15a): 2.7 *
TAG (C18:3, C18:2, C18:1) (f28, female rats, Table 15a): 3.06 *
TAG (DAG-Fragment) (f28, female rats, Table 15a): 3.12 *
TAG No 059 (f28, female rats, Table 15a): 2.7 *
Threonic acid (f28, female rats, Table 15a): 0.84
trans-4-Hydroxyproline (f28, female rats, Table 15a): 1.66 *
Androstenedione (f28, female rats, Table 15b): 0.23 *
Arginine (f28, female rats, Table 15b): 0.78 *
Campesterol (f28, female rats, Table 15b): 0.9
Ceramide (d18:1,C24:0) (f28, female rats, Table 15b): 0.69 *
Lactate (f28, female rats, Table 15b): 0.59 *
Lysine (f28, female rats, Table 15b): 0.65 *
Metanephrine (f28, female rats, Table 15b): 0.47 *
Normetanephrine (f28, female rats, Table 15b): 0.75 *
Phosphatidylcholine (C16:0,C20:5) (f28, female rats, Table 15b): 1.17
Phosphatidylcholine (C16:0,C22:6) (f28, female rats, Table 15b): 0.93
Phosphatidylcholine (C18:0, C20:3) (f28, female rats, Table 15b): 0.87 *
Phosphatidylcholine (C18:0,C18:1) (f28, female rats, Table 15b): 0.81 *
Progesterone (f28, female rats, Table 15b): 0.3 *
Pyruvate (f28, female rats, Table 15b): 0.72 *
Sphingomyelin (d18:1,C23:0) (f28, female rats, Table 15b): 0.64 *
Sphingomyelin (d18:1,C24:0) (f28, female rats, Table 15b): 0.74 *
Urea (f28, female rats, Table 15b): 0.54 *
